In PubChem BioAssay (NCI):
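Where inhibition never reached the appropriate level, the endpoint shown equals the highest concentration tested. Otherwise, values were interpolated linearly from a five-concentration, 48-hour dose response in 96-well plates. Abbreviation: GI50, concentration required for 50% inhibition of growth. TGI: total growth inhibition.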

System: K-562 leukemia
Experiment: NCI tumour cell line growth inhibition, 48 h

SMILES	GI50 [µM]	TGI [µM]
CCCCCc1c(C)[nH]c(/C=C2\N=C(c3ccc[nH]3)C=C2CC)c1C	< 0.01	0.176
CC(C)(C)C(=O)/C=C/c1ccc(Oc2ccccc2)cc1		36
Cc1c[n+](Cc2ccc3ccccc3c2)cn1Cc1ccc2ccccc2c1	1.38	4.59
COc1cc(/C=C2\C(=O)Nc3ccc(F)cc32)cc(OC)c1OC	5.67	> 100
Cc1cn2c(/C=C3/C(=O)Nc4ccccc43)c(-c3ccc(Cl)cc3)nc2s1	46.5	> 50
COc1ccccc1NC(=O)C1=C(C)NC(C)=C(C(=O)Nc2ccccc2OC)C1c1ccc([N+](=O)[O-])cc1		> 100
COC(COC(=O)N1CCN(C=O)CC1)C1=C(N2CC2)C(=O)C(C)=C(N2CC2)C1=O (stereo unspecified)		> 100
O=C(Nc1cccc(Cl)c1Cl)c1cccc(NC2=C(Cl)C(=O)N(Cc3ccccc3)C2=O)c1	5.32	37.5
C#C[C@]1(O)CC[C@H]2[C@@H]3CC=C4c5sc(Nc6ccccc6)nc5CC[C@]4(C)[C@H]3CC[C@@]21C	1.86	> 100
COc1cc(NC(C)CCCN)c2nccc(C)c2c1OC (stereo unspecified)	19.2	53.9
CSC1(CC(=O)N(C)C)C(=O)Nc2ccccc21 (stereo unspecified)		> 100
COc1cc2c(cc1OC)C13CCN4CC5=CCOC6CC(=O)N2C1C6C5CC43O (stereo unspecified)		> 100
O/N=C\c1c(O)ccc2ccccc12		> 100
Cc1n(Cc2ccc3ccccc3c2)cc[n+]1Cc1ccc2ccccc2c1	0.478	4.51
Cc1c(C2Nc3ccccc3C2C)[nH]c2ccccc12 (stereo unspecified)	0.89	50.4
O=C(CCC(=O)Nc1cccc(Cl)c1)CC(=O)c1ccc(Cl)cc1		> 100
CC(=O)Oc1ccccc1C(=O)N=C1[Se]CCCN1C(=O)c1ccccc1OC(C)=O	3.32	12.6
CCN(CC)CCNCC(=O)Oc1ccc(/C=C/C(=O)CC(=O)/C=C/c2ccc(OC(=O)CNCCN(CC)CC)c(OC)c2)cc1OC	28.7	> 100
O=C(O)Cc1c(O)ccc2ccccc12		> 100
CC(=O)O[C@@H]1C[C@]2(C(C)C)O[C@@]1(C)[C@@H]1CCC(C)=C1[C@@H]2OC(=O)/C=C/c1ccccc1	33.7	> 100
O=C(CSc1nnc(-c2ccccc2NC(=O)C(F)(F)F)c(=O)[nH]1)NC(=O)Nc1ccccc1		> 100
COc1ccc(C(=O)C(CO)Oc2ccccc2OC)cc1OC (stereo unspecified)		> 100

System: OVCAR-4 ovarian
Experiment: NCI tumour cell line growth inhibition, 48 h

SMILES	GI50 [µM]	TGI [µM]
Nc1c(C(=O)N/N=C/c2ccc(-c3ccc(Cl)cc3)o2)cnn1-c1ccnc2c(C(F)(F)F)cccc12	72.5	> 100
CCCCCc1c(C)[nH]c(/C=C2\N=C(c3ccc[nH]3)C=C2CC)c1C	< 0.0176	0.727
Cc1c[n+](Cc2ccc3ccccc3c2)cn1Cc1ccc2ccccc2c1	0.583	2.35
COc1cc(/C=C2\C(=O)Nc3ccc(F)cc32)cc(OC)c1OC	60	> 100
COc1ccccc1NC(=O)C1=C(C)NC(C)=C(C(=O)Nc2ccccc2OC)C1c1ccc([N+](=O)[O-])cc1		> 100
COC(COC(=O)N1CCN(C=O)CC1)C1=C(N2CC2)C(=O)C(C)=C(N2CC2)C1=O (stereo unspecified)		2.13
O=C(Nc1cccc(Cl)c1Cl)c1cccc(NC2=C(Cl)C(=O)N(Cc3ccccc3)C2=O)c1	57.7	> 100
C#C[C@]1(O)CC[C@H]2[C@@H]3CC=C4c5sc(Nc6ccccc6)nc5CC[C@]4(C)[C@H]3CC[C@@]21C	3.14	65.6
COc1cc(NC(C)CCCN)c2nccc(C)c2c1OC (stereo unspecified)	2.7	10.2
CSC1(CC(=O)N(C)C)C(=O)Nc2ccccc21 (stereo unspecified)		> 100
COc1cc2c(cc1OC)C13CCN4CC5=CCOC6CC(=O)N2C1C6C5CC43O (stereo unspecified)		> 100
Cc1n(Cc2ccc3ccccc3c2)cc[n+]1Cc1ccc2ccccc2c1	0.381	6.36
Cc1c(C2Nc3ccccc3C2C)[nH]c2ccccc12 (stereo unspecified)	6.17	21.6
O=C(CCC(=O)Nc1cccc(Cl)c1)CC(=O)c1ccc(Cl)cc1		> 100
O=C(O)c1ccccc1-c1ccccc1C(=O)Nc1ccc2c(c1)Cc1cc(F)ccc1-2		> 100
Cc1[nH]n(-c2cccc(Cl)c2)c(=O)c1/C=C1\C=Nc2ccc(Br)cc21	1.59	2.95
CC(=O)Oc1ccccc1C(=O)N=C1[Se]CCCN1C(=O)c1ccccc1OC(C)=O	1.93	5.57
CCN(CC)CCNCC(=O)Oc1ccc(/C=C/C(=O)CC(=O)/C=C/c2ccc(OC(=O)CNCCN(CC)CC)c(OC)c2)cc1OC	8.67	> 100
O=C(O)Cc1c(O)ccc2ccccc12		> 100
CC(=O)O[C@@H]1C[C@]2(C(C)C)O[C@@]1(C)[C@@H]1CCC(C)=C1[C@@H]2OC(=O)/C=C/c1ccccc1	11.6	> 100
O=C1c2ccn(CCCCNC(CO)(CO)CO)c2C(=O)c2c1c(O)c1ccccc1c2O	2.35	> 22.2
COc1ccc(C(=O)C(CO)Oc2ccccc2OC)cc1OC (stereo unspecified)		> 100

System: OVCAR-8 ovarian
Experiment: NCI tumour cell line growth inhibition, 48 h

SMILES	TGI [µM]	GI50 [µM]
CC(C)(C)C(=O)/C=C/c1ccc(Oc2ccccc2)cc1	> 100	
Cc1c[n+](Cc2ccc3ccccc3c2)cn1Cc1ccc2ccccc2c1	4.01	1.89
COc1cc(/C=C2\C(=O)Nc3ccc(F)cc32)cc(OC)c1OC	> 100	64.2
Cc1cn2c(/C=C3/C(=O)Nc4ccccc43)c(-c3ccc(Cl)cc3)nc2s1	23.6	10.2
COc1ccccc1NC(=O)C1=C(C)NC(C)=C(C(=O)Nc2ccccc2OC)C1c1ccc([N+](=O)[O-])cc1	> 100	
COC(COC(=O)N1CCN(C=O)CC1)C1=C(N2CC2)C(=O)C(C)=C(N2CC2)C1=O (stereo unspecified)	1.36	
O=C(Nc1cccc(Cl)c1Cl)c1cccc(NC2=C(Cl)C(=O)N(Cc3ccccc3)C2=O)c1	42	9.47
